Results published in PubChem BioAssay AID624285 (Broad Institute, 2012).
The source made the active and inactive calls.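 How the source made its calls: active means signal-decreasing dose-response curve whose fitted half-maximal concentration is at or below twice the highest valid tested dose; inconclusive means flat fit at 30 to 70% signal loss, or poor fit; inactive means the rest.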

Experiments:
[1] = system: NIH3T3/HeLa viability, CellTiter-Glo ATP luminescence, 24 h; assay: cytotoxicity in mammalian cells, dose response, cytotoxicity control for PDI inhibitor project, cell-based, 24 h, luminescence, cherry-picked samples (AID 624285)
[2] = as above; details: NIH3T3/HeLa viability, CellTiter-Glo ATP luminescence, 24 h; at 35 µM (top of the series)

CN(C)CCCN(C(=O)c1ccc(S(=O)(=O)N2CCc3ccccc32)cc1)c1nc2c(Cl)cccc2s1
AC50 [1]: 16.5 µM

CCc1cc(OCCCCNCc2ccccc2)ccc1Cl
AC50 [1]: 21.5 µM

CCOc1cc(/C=C/C(=O)c2ccc(O)cc2)ccc1OCC(=O)N(C)C
AC50 [1]: 39.4 µM

COc1cc(C2C(C#N)=C(N)Oc3cc(O)ccc32)cc(OC)c1OC (stereo unspecified)
AC50 [1]: > 70 µM (inactive)

COc1ccc(/C=C2\Sc3ccc(C(=O)NCCCN4CCCC4)cc3N(C)C2=O)cc1OC
AC50 [1]: 35.2 µM

CCOC(=O)c1c(CN(C)C)n(-c2ccccc2)c2cc(Br)c(O)cc12
AC50 [1]: > 70 µM (inactive)

O=C1N[C@@H](Cc2c[nH]c3ccccc23)COC(=O)[C@@H](Cc2ccc(F)cc2)C/C=C\C[C@H]1CC(=O)N(CCO)Cc1ccccc1
AC50 [1]: 30.2 µM

O=C(CCS(=O)(=O)c1ccccc1)N(CCCN1CCOCC1)c1nc2ccccc2s1
AC50 [1]: 14.2 µM

Nc1ccc(C(=O)NN2C(=O)[C@H](Cl)C2c2ccc(Cl)cc2)cc1 (stereo partly specified)
AC50 [1]: 6.04 µM

CC[C@]12c3[nH]c4cc(-c5ccco5)ccc4c3CCN1C(=O)[C@@H](CC(=O)NCc1ccco1)C[C@@H]2C(=O)N1CCN(C(=O)c2ccco2)CC1
AC50 [1]: > 70 µM (inactive)

CCOC(=O)c1c(CN2CCN(C)CC2)n(-c2ccccc2)c2cc(Br)c(O)cc12
AC50 [1]: 23.9 µM

C[C@H]1CN([C@@H](C)CO)C(=O)Cc2cc(NC(=O)Nc3ccccc3)ccc2O[C@@H]1CN(C)Cc1ccccc1
AC50 [1]: 37.9 µM

CCCN(CCC)S(=O)(=O)c1ccc(C(=O)Nc2nnc(COC)o2)cc1
AC50 [1]: > 70 µM (inactive)

C[C@@H]1CN([C@H](C)CO)C(=O)c2cccc(NS(C)(=O)=O)c2O[C@@H]1CN(C)Cc1ccc(Oc2ccccc2)cc1
AC50 [1]: > 70 µM (inactive)

Cc1c(O)ccc2c(CN3CCN(C/C=C/c4ccccc4)CC3)cc(=O)oc12
AC50 [1]: > 70 µM (inactive)

CC(=O)Oc1ccc(C2OC(=O)c3ccccc3N2C(C)=O)cc1 (stereo unspecified)
AC50 [1]: > 70 µM (inactive)

Oc1cccc(-c2nc3c4c(ncn3n2)-c2ccccc2CC42CCCC2)c1
AC50 [1]: 14.3 µM

C[C@@H]1CN([C@H](C)CO)C(=O)c2cccc(NS(C)(=O)=O)c2O[C@H]1CN(C)Cc1ccc(Oc2ccccc2)cc1
AC50 [1]: > 70 µM (inactive)

CCOC(=O)c1c(CNCCN(CC)CC)n(C)c2cc(Br)c(OC)cc12
AC50 [1]: > 70 µM (inactive)

Cc1noc(C)c1S(=O)(=O)Nc1ccc2c(c1)CC(=O)N([C@@H](C)CO)C[C@@H](C)[C@@H](CN(C)S(=O)(=O)c1ccc(F)cc1)O2
AC50 [1]: > 70 µM (inactive)

CCOC(=O)c1c(CN2CCOCC2)n(-c2ccccc2)c2ccc(O)cc12
AC50 [1]: > 70 µM (inactive)

COc1ccc(Oc2ccc(/C=C/C(=O)c3ccc(O)cc3)cc2[N+](=O)[O-])cc1
AC50 [1]: 12.4 µM

Cc1cccn2c(CN(C)C3CCCc4ccccc43)c(C(=O)N3CCOCC3)nc12 (stereo unspecified)
AC50 [1]: > 70 µM (inactive)

COc1ccc(-c2nnc3ccc(SCC(=O)Nc4nc5ccccc5s4)nn23)cc1OC
AC50 [1]: > 70 µM (inactive)

CCOC(=O)c1c(CN2CCN(C)CC2)n(C)c2cc(Br)c(OC)cc12
AC50 [1]: 22.2 µM

Cc1ccc(C)c(N2CCN(S(=O)(=O)c3ccc4c(c3)OCCO4)CC2)c1
AC50 [1]: > 70 µM (inactive)

Cc1[nH][nH]c(=O)c1C(c1c(C)[nH][nH]c1=O)c1cn(Cc2ccccc2Cl)c2ccccc12
AC50 [1]: > 70 µM (inactive)

Cc1ccc(S(=O)(=O)N(C)c2ccc(OC(=O)COc3ccccc3)cc2)cc1
AC50 [1]: > 70 µM (inactive)

CCOc1cc(N2CCOCC2)c(OCC)cc1NC(=O)COC(=O)[C@H](Cc1c[nH]c2ccccc12)NC(C)=O
AC50 [1]: > 70 µM (inactive)

O=c1cc(CN2CCN(S(=O)(=O)/C=C/c3ccccc3)CC2)c2ccc(O)cc2o1
AC50 [1]: > 70 µM (inactive)

CS(=O)(=O)c1ccc(C(=O)OCC(=O)N2CCN(CCC3CCCCC3)CC2)cc1[N+](=O)[O-]
AC50 [1]: 3.32 µM

Cc1ccc2c(c1)Oc1ccc(NC(=O)CCl)cc1C(=O)N2
AC50 [1]: 8.51 µM

COC(=O)c1ccc(NC(=S)NCCc2cccc(C)c2)cc1
AC50 [1]: > 70 µM (inactive)

COC1/C=C/C=C(\C)Cc2cc(O)c(Cl)c(c2)N(C)C(=O)CC(OC(=O)C(C)C)C2(C)OC2C(C)C2CC1(O)NC(=O)O2 (stereo unspecified)
AC50 [1]: > 70 µM (inactive)

O=C(Nc1ccccc1N1CCCC1)c1cc(Cl)ccc1Cl
AC50 [1]: > 70 µM (inactive)

CC(=O)OC1CCC2C3CCC4=C(CC(F)C(=O)C4)C3CCC12C (stereo unspecified)
AC50 [1]: > 70 µM (inactive)

C[C@H]1CN([C@@H](C)CO)C(=O)c2cc(NC(=O)Cc3cn(C)c4ccccc34)ccc2O[C@@H]1CN(C)S(=O)(=O)c1ccc(F)cc1
AC50 [1]: > 70 µM (inactive)

NC(Cc1ccc(C(F)(F)F)cc1)c1csc(Nc2ccc(C(=O)NCCCO)cn2)n1 (stereo unspecified)
AC50 [1]: 35.1 µM

O=C(Nc1ccc(Br)cc1F)c1cccnc1
AC50 [1]: > 70 µM (inactive)

O=C(CCc1nc(-c2ccccc2F)no1)Nc1ccc(Oc2ccccc2)cc1
AC50 [1]: > 70 µM (inactive)

CC(=O)c1cc(-c2ccccc2)n(CC(=O)Nc2cccc(C)c2)c1C
AC50 [1]: > 70 µM (inactive)

CCOc1cc(N2CCOCC2)c(OCC)cc1NC(=O)Cc1ccccc1OC
AC50 [1]: 39.5 µM

CCCCC(=O)OC1CCC2C3CCc4cc(O)ccc4C3CCC12C (stereo unspecified)
AC50 [1]: 27.3 µM

CC1(c2ccc3ccccc3c2)NC(=O)N(CC(=O)Nc2cccc(S(=O)(=O)N3CCOCC3)c2)C1=O (stereo unspecified)
AC50 [1]: > 70 µM (inactive)

COc1ccc(OCCN2CCC(C(=O)NC(c3ccsc3)c3ccccc3C)CC2)cc1 (stereo unspecified)
AC50 [1]: > 70 µM (inactive)

Cc1noc(C)c1-c1ccc(C(=O)NCc2ccc(Cl)cc2)c2occc12
AC50 [1]: > 70 µM (inactive)

O=S(=O)(Nc1ccc(C(O)(C(F)(F)F)C(F)(F)F)cc1)c1ccc(Cl)c2nonc12
AC50 [1]: 9.47 µM

CCOC(=O)c1c(CN2CCOCC2)n(-c2ccccc2)c2cc(Br)c(O)cc12
AC50 [1]: > 70 µM (inactive)

CCOC(=O)c1c(CN(C)C)n(-c2ccc(C)cc2)c2cc(Br)c(O)cc12
AC50 [1]: > 70 µM (inactive)

C[C@@H]1CN([C@@H](C)CO)C(=O)c2cc(NC(=O)Cc3cn(C)c4ccccc34)ccc2O[C@H]1CN(C)S(=O)(=O)c1ccc(F)cc1
activity change, negative = cytotoxicity [2]: 3.15% (inactive)

Cc1c(O)ccc2c(CC(=O)N[C@@H](Cc3c[nH]c4ccccc34)C(=O)O)cc(=O)oc12
activity change, negative = cytotoxicity [2]: -8.56% (inactive)

CCC1Nc2ncnc(N3CCCCC3)c2N(Cc2ccc(C)cc2)C1=O (stereo unspecified)
activity change, negative = cytotoxicity [2]: -16.7% (inactive)

O=C(NCc1cccs1)C1CC(c2ccc(F)cc2)=NO1 (stereo unspecified)
activity change, negative = cytotoxicity [2]: -16.4% (inactive)

C=CCn1c(SCC(=O)Nc2ccc(N(C)C)cc2)nnc1-c1cccc(C)c1
activity change, negative = cytotoxicity [2]: -10.1% (inactive)

CCOC(=O)c1c(CN2CCOCC2)n(-c2ccccc2)c2cc(Br)c(OC)cc12
activity change, negative = cytotoxicity [2]: -12.1% (inactive)

O=C(/C=C/c1ccc(NC(=O)c2ccccc2-c2ccccc2C(=O)O)cc1)c1ccccc1
activity change, negative = cytotoxicity [2]: -8.34% (inactive)

CC1CCc2sc(C(=O)N/N=C/C3CCCCC3)cc2C1 (stereo unspecified)
activity change, negative = cytotoxicity [2]: -8.35% (inactive)

COc1ccc(S(=O)(=O)NCC(c2ccc(F)cc2)N2CCOCC2)cc1Br (stereo unspecified)
activity change, negative = cytotoxicity [2]: -10.1% (inactive)

O=C(CN1CCN(c2ccc(O)cc2)CC1)Nc1cc(S(=O)(=O)N2CCOCC2)ccc1Cl
activity change, negative = cytotoxicity [2]: -13.3% (inactive)

O=C(CSc1n[nH]c(-c2ccccc2)n1)Nc1ccccc1O
activity change, negative = cytotoxicity [2]: -6.55% (inactive)

C/C=C(\C)C(=O)NCCN1C2=NC[C@H](Cc3ccc(O)cc3)N2C[C@H]1Cc1ccc(O)cc1
activity change, negative = cytotoxicity [2]: -2.15% (inactive)

COc1ccccc1NS(=O)(=O)c1ccc(C)c(C(=O)NCC2(N(C)C)CCCCC2)c1
activity change, negative = cytotoxicity [2]: -11.3% (inactive)

O=C(NCCCN1CCOCC1)C(Sc1ccccc1)c1ccccc1 (stereo unspecified)
activity change, negative = cytotoxicity [2]: -12% (inactive)

C[C@@H]1CN([C@@H](C)CO)C(=O)c2cccc(NS(C)(=O)=O)c2O[C@@H]1CN(C)Cc1ccc(Oc2ccccc2)cc1
activity change, negative = cytotoxicity [2]: -5.95% (inactive)

CC(=O)c1ccc(NC(=O)c2cc(Cl)nc3ccccc23)cc1
activity change, negative = cytotoxicity [2]: -8.36% (inactive)

C[C@@H]1O[C@@H](O[C@H]2[C@H](O)[C@@H](O)[C@H](Oc3c(-c4ccc(O)c(O)c4)oc4cc(O)cc(O)c4c3=O)O[C@@H]2CO)[C@H](O)[C@H](O)[C@H]1O
activity change, negative = cytotoxicity [2]: 1.36% (inactive)

O=C(c1cc([N+](=O)[O-])ccc1N1CCOCC1)N1CCN(c2ccc([N+](=O)[O-])cc2)CC1
activity change, negative = cytotoxicity [2]: -16.5% (inactive)

O=C1CCC(=O)N1c1nc2nc(-c3ccccc3)cc(-c3ccccc3)n2n1
activity change, negative = cytotoxicity [2]: -9.12% (inactive)

O=C(N/N=C/c1cccc([N+](=O)[O-])c1)c1cnccn1
activity change, negative = cytotoxicity [2]: -7.37% (inactive)

CCN(CC)C(=O)CSc1nnc([C@H](Cc2c[nH]c3ccccc23)NC(=O)OC(C)(C)C)o1
activity change, negative = cytotoxicity [2]: -8.74% (inactive)

Cn1cc(Cl)c(C(=O)OCC(=O)Nc2ccccc2)n1
activity change, negative = cytotoxicity [2]: -7.99% (inactive)

COc1ccc(CN(C)C[C@@H]2Oc3c(NS(C)(=O)=O)cccc3C(=O)N([C@H](C)CO)C[C@H]2C)cc1
activity change, negative = cytotoxicity [2]: 2.2% (inactive)

Cc1noc(C)c1S(=O)(=O)Nc1ccc2c(c1)CC(=O)N([C@H](C)CO)C[C@H](C)[C@@H](CN(C)S(=O)(=O)c1ccc(F)cc1)O2
activity change, negative = cytotoxicity [2]: 4.98% (inactive)

CC(C)Oc1cccc(C(=O)NC(=S)Nc2cccc(NC(=O)c3ccccc3Cl)c2)c1
activity change, negative = cytotoxicity [2]: -18.2% (inactive)

CCc1ccc(NC(=O)Nc2ccncc2)cc1
activity change, negative = cytotoxicity [2]: -3.55% (inactive)

O=C(NC(Cc1ccc(O)cc1)C(=O)N=Nc1c(O)[nH]c2ccccc12)c1ccccc1 (stereo unspecified)
activity change, negative = cytotoxicity [2]: -6.54% (inactive)

Cc1nn(CC(=O)NCC2CCCO2)c(C)c1[N+](=O)[O-] (stereo unspecified)
activity change, negative = cytotoxicity [2]: -7.91% (inactive)

C[C@H](CO)N1C[C@H](C)[C@@H](CN(C)Cc2ccc(Oc3ccccc3)cc2)Oc2c(NS(C)(=O)=O)cccc2C1=O
activity change, negative = cytotoxicity [2]: 0.644% (inactive)

CCOc1ccccc1CN1CCNC(=O)C1CC(=O)NCc1nccn1CC (stereo unspecified)
activity change, negative = cytotoxicity [2]: -14.3% (inactive)

O=S(=O)(c1ccccc1)N1N=C(c2ccc(O)cc2)CC1c1ccco1 (stereo unspecified)
activity change, negative = cytotoxicity [2]: -18% (inactive)

COc1ccccc1NC(=O)c1ccc(NC(=O)COC(=O)c2cccnc2Cl)cc1
activity change, negative = cytotoxicity [2]: -3.13% (inactive)
